Experimental data from patent US20260076372A1, “SPRAYABLE ANTIFUNGAL COMPOSITION FOR USE IN THE FIELD OF AGRICULTURE, AND ASSOCIATED METHOD AND USE” (GAIAGO, priority 2022, published 2026).
In brackets after ≈: the same amount, converted by molar mass. Several values for one entry are separate records, joined by “and”; a condition that tells them apart may be missing. Equal values may be shown once.

Key:
[1] = system: Alternaria solani; experiment: in vitro 96-well micro-titration test on Alternaria solani spores; type: cell-based
[2] = system: Pythium ultimum; experiment: in vitro test on P. ultimum; details: for EC50: Globisporangium ultimum, read-out: EC50 (μg/ml or ppm); for EC95 (μg/ml or ppm): P. ultimum, Table 14
Description: The evaluations were performed with a 96-well micro-titration test to evaluate the in vitro fungicidal activity of each solution.
Three repetitions (wells) were carried out. The value of the concentration making it possible to inhibit the growth of each pathogen (EC50) to 50% was determined using the optical density measurement.

[3] = system: Fusarium graminearum; experiment: microbe, parasite or virus in culture; type: cell-based; details: for EC95 (μg/ml or ppm) / EC50: Fusarium graminearum; for EC95 (μg/ml or ppm): Table 9; for EC50: read-out: EC50 (μg/ml or ppm)
[4] = system: Septoria tritici (Zymoseptoria tritici); experiment: in vitro 96-well micro-titration test on Septoria tritici / Zymoseptoria tritici; type: cell-based; details: for EC50: Zymoseptoria tritici, S. tritici, Table 12, read-out: EC50 (μg/ml or ppm)

## Oc1ccc(/C=C/c2cc(O)cc(O)c2)cc1 [resveratrol, 5-[(E)-2-(4-hydroxyphenyl)-ethenyl]benzene-1,3-diol]
[1]; 0.0064 μg/ml or ppm in water
  inhibition (%) of A. solani growth: 6.20%
[1]; 0.032 μg/ml or ppm in water
  inhibition (%) of A. solani growth: 13.60%
[1]; 0.16 μg/ml or ppm in water
  inhibition (%) of A. solani growth: 13.70%
[1]; 0.8 μg/ml or ppm in water
  inhibition (%) of A. solani growth: 16.10%
[1]; 4 μg/ml or ppm in water
  inhibition (%) of A. solani growth: 11.20%
[1]; 20 μg/ml or ppm in water
  inhibition (%) of A. solani growth: 28.70%
[1]; 100 μg/ml or ppm in water
  inhibition (%) of A. solani growth: 54.7%
[2]; 0.0064 μg/ml or ppm
  inhibition of P. ultimum: −8.20%
[2]; 0.032 μg/ml or ppm
  inhibition of P. ultimum: −0.30%
[2]; 0.16 μg/ml or ppm
  inhibition of P. ultimum: 0.00%
[2]; 0.8 μg/ml or ppm
  inhibition of P. ultimum: −1.70%
[2]; 4 μg/ml or ppm
  inhibition of P. ultimum: 23.30%
[2]; 20 μg/ml or ppm
  inhibition of P. ultimum: 72.40%
[2]; 100 μg/ml or ppm
  inhibition of P. ultimum: 100% and 101.30%
[2]
  EC50: 8.89 µg/mL (≈ 38.9 µM)
  EC95 (μg/ml or ppm): 73.85 μg/ml or ppm
[3]; 0.0064 μg/ml or ppm
  inhibition of Fusarium graminearum: 0.30%
[3]; 0.032 μg/ml or ppm
  inhibition of Fusarium graminearum: −2.90%
[3]; 0.16 μg/ml or ppm
  inhibition of Fusarium graminearum: −3.90%
[3]; 0.8 μg/ml or ppm
  inhibition of Fusarium graminearum: −1.60%
[3]; 4 μg/ml or ppm
  inhibition of Fusarium graminearum: −3.80%
[3]; 20 μg/ml or ppm
  inhibition of Fusarium graminearum: 18.20%
[3]; 100 μg/ml or ppm
  inhibition of Fusarium graminearum: 53.30%
[3]; 100 μg/ml or ppm, listed as Resveratrol (trans)
  inhibition of Fusarium graminearum: more than 50%
[3]
  EC95 (μg/ml or ppm): >100 μg/ml or ppm
  EC50: 29.5 µg/mL (≈ 129 µM)
[4]; 0.0064 μg/ml or ppm
  % inhibition of pathogen growth (S. tritici): 0.00%
[4]; 0.032 μg/ml or ppm
  % inhibition of pathogen growth (S. tritici): −0.40%
[4]; 0.16 μg/ml or ppm
  % inhibition of pathogen growth (S. tritici): −0.40%
[4]; 0.8 μg/ml or ppm
  % inhibition of pathogen growth (S. tritici): 0.60%
[4]; 4 μg/ml or ppm
  % inhibition of pathogen growth (S. tritici): −2.60%
[4]; 20 μg/ml or ppm
  % inhibition of pathogen growth (S. tritici): −2.00%
[4]; 100 μg/ml or ppm
  % inhibition of pathogen growth (S. tritici): 104.90%
[4]
  EC50: 72 µg/mL (≈ 315 µM)
[4]; in vitro
  concentration showing efficacy against Septoria tritici: 100 ppm

## C[C@@H]1CC[C@@]2(OC1)O[C@H]1C[C@H]3[C@@H]4CC[C@@H]5C[C@@H](O)CC[C@]5(C)[C@H]4CC[C@]3(C)[C@H]1[C@@H]2C [smilagenin, (25R)-5beta-Spirostan-3beta-ol]
[1]; 0.0064 μg/ml or ppm in water
  inhibition (%) of A. solani growth: 7.9%
[1]; 0.032 μg/ml or ppm in water
  inhibition (%) of A. solani growth: 10.1%
[1]; 0.16 μg/ml or ppm in water
  inhibition (%) of A. solani growth: 19.6%
[1]; 0.8 μg/ml or ppm in water
  inhibition (%) of A. solani growth: 22.6%
[1]; 4 μg/ml or ppm in water
  inhibition (%) of A. solani growth: 28.0%
[1]; 20 μg/ml or ppm in water
  inhibition (%) of A. solani growth: 29.3%
[1]; 40 μg/ml or ppm in water
  inhibition (%) of A. solani growth: 30%
[2]; 0.0064 μg/ml or ppm
  inhibition of P. ultimum: −6.70%
[2]; 0.032 μg/ml or ppm
  inhibition of P. ultimum: 0.00%
[2]; 0.16 μg/ml or ppm
  inhibition of P. ultimum: −0.60%
[2]; 0.8 μg/ml or ppm
  inhibition of P. ultimum: 0.10%
[2]; 4 μg/ml or ppm
  inhibition of P. ultimum: −3.40%
[2]; 20 μg/ml or ppm
  inhibition of P. ultimum: −0.10%
[2]; 100 μg/ml or ppm
  inhibition of P. ultimum: 0.00%
[2]
  EC50: > 100 µg/mL
  EC95 (μg/ml or ppm): >100 μg/ml or ppm
[3]; 0.0064 μg/ml or ppm
  inhibition of Fusarium graminearum: 5.00%
[3]; 0.032 μg/ml or ppm
  inhibition of Fusarium graminearum: −2.60%
[3]; 0.16 μg/ml or ppm
  inhibition of Fusarium graminearum: −0.80%
[3]; 0.8 μg/ml or ppm
  inhibition of Fusarium graminearum: 2.40%
[3]; 4 μg/ml or ppm
  inhibition of Fusarium graminearum: 1.50%
[3]; 20 μg/ml or ppm
  inhibition of Fusarium graminearum: −8.70%
[3]; 100 μg/ml or ppm
  inhibition of Fusarium graminearum: 2.00%
[3]
  EC95 (μg/ml or ppm): >100 μg/ml or ppm
  EC50: > 100 µg/mL
[4]; 0.0064 μg/ml or ppm
  % inhibition of pathogen growth (S. tritici): −3.90%
[4]; 0.032 μg/ml or ppm
  % inhibition of pathogen growth (S. tritici): −2.30%
[4]; 0.16 μg/ml or ppm
  % inhibition of pathogen growth (S. tritici): −1.90%
[4]; 0.8 μg/ml or ppm
  % inhibition of pathogen growth (S. tritici): −9.50%
[4]; 4 μg/ml or ppm
  % inhibition of pathogen growth (S. tritici): 0.00%
[4]; 20 μg/ml or ppm
  % inhibition of pathogen growth (S. tritici): −2.10%
[4]; 100 μg/ml or ppm
  % inhibition of pathogen growth (S. tritici): −0.20%
[4]
  EC50: > 100 µg/mL
